Patent US10221173B2, “Chemical compounds” (AstraZeneca AB, priority 2017, dated 2019)
In brackets after ≈: the same amount, converted by molar mass.

Legend:
[1] = Human plasma protein binding (equilibrium dialysis); type: in vitro ADME
[2] = Log D (shake flask, 1-octanol/aqueous buffer); type: physicochemical; conditions: 1-octanol/aqueous buffer, pH 7.4, pH 7.4
hERG potassium channel = hERG potassium channel (Homo sapiens (Human), UniProt Q12809)
Protocol: The assay was conducted as follows with all reagents used at room temperature unless otherwise stated.
All compounds were acoustically dispensed in quadruplicate using a Labcyte Echo.
Calculation of results is performed using APC package within Genedata. For the routine normalization of well data with Neutral and Inhibitor control well groups as reference, GeneData Assay Analyzer uses the following equation to normalize the signal values to the desired signal range:
[formula] x is the measured raw signal value of a well is the median of the measured signal values for the Central Reference (Neutral) wells on a plate is the median of the measured signal values for the Scale Reference (Inhibitor) wells on a plate CR is the desired median normalized value for the Central Reference (Neutral) SR is the desired median normalized value for the Scale Reference (Inhibitor)

[3] = Thermodynamic solubility (shake-flask); type: physicochemical; conditions: aqueous phosphate buffer, 25 °C, pH 7.4, aqueous buffer, thermodynamic from solid, phosphate buffer pH 7.4, 24 hours
Protocol: The thermodynamic solubility of a research compound is measured under standard conditions. It is a shake-flask approach that uses 10 mM DMSO solutions which are supplied from the Compound Managements liquid store and is a high throughput method. The dried compounds are equilibrated in an aqueous phosphate buffer (pH 7.4) for 24 hours at 25° C., the portion with the dissolved compound is then separated from the remains. The solutions are analyzed and quantified using UPLC/MS/MS, QC-samples are incorporated in each assay-run to ensure the quality of the assay.

[4] = target: recombinant human Estrogen Receptor alpha ligand binding domain (ER alpha-LBD (GST)) (Homo sapiens (Human), UniProt P03372); test: ERα binding assay (LanthaScreen TR-FRET competition)
recombinant human Estrogen Receptor alpha ligand binding domain (ER alpha-LBD (GST)), sequence (P03372 307-554): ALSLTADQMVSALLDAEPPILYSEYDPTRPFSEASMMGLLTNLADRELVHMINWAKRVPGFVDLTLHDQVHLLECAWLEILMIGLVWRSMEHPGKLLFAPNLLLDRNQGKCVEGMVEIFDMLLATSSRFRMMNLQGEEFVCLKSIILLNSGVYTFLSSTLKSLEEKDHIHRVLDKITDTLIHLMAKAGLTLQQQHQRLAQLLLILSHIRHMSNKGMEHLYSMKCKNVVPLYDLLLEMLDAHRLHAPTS

[5] = target: Estrogen Receptor (ERα) in MCF-7 cells (Homo sapiens (Human), UniProt P03372); test: MCF-7 ER down-regulation assay (immuno-fluorescence); type: cell-based; conditions: for % downregulation (in brackets): maximum downregulation
Estrogen Receptor (ERα) in MCF-7 cells, sequence (P03372 whole entry): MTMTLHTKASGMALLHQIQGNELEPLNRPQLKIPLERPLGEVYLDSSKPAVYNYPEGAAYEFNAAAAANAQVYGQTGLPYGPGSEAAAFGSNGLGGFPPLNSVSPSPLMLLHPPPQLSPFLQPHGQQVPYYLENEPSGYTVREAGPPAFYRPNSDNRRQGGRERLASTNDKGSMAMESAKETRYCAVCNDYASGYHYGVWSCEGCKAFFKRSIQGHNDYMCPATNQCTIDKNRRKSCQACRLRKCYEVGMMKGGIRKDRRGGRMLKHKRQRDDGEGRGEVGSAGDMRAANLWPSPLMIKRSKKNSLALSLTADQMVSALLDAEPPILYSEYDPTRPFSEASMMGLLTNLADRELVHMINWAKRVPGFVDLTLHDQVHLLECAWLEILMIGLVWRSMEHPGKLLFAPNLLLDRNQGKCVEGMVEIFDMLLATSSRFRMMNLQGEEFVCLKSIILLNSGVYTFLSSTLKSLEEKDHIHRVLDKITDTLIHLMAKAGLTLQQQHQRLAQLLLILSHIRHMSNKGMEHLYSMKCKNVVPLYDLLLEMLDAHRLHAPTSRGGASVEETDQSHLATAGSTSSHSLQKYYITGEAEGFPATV

hERG potassium channel, sequence (Q12809 whole entry): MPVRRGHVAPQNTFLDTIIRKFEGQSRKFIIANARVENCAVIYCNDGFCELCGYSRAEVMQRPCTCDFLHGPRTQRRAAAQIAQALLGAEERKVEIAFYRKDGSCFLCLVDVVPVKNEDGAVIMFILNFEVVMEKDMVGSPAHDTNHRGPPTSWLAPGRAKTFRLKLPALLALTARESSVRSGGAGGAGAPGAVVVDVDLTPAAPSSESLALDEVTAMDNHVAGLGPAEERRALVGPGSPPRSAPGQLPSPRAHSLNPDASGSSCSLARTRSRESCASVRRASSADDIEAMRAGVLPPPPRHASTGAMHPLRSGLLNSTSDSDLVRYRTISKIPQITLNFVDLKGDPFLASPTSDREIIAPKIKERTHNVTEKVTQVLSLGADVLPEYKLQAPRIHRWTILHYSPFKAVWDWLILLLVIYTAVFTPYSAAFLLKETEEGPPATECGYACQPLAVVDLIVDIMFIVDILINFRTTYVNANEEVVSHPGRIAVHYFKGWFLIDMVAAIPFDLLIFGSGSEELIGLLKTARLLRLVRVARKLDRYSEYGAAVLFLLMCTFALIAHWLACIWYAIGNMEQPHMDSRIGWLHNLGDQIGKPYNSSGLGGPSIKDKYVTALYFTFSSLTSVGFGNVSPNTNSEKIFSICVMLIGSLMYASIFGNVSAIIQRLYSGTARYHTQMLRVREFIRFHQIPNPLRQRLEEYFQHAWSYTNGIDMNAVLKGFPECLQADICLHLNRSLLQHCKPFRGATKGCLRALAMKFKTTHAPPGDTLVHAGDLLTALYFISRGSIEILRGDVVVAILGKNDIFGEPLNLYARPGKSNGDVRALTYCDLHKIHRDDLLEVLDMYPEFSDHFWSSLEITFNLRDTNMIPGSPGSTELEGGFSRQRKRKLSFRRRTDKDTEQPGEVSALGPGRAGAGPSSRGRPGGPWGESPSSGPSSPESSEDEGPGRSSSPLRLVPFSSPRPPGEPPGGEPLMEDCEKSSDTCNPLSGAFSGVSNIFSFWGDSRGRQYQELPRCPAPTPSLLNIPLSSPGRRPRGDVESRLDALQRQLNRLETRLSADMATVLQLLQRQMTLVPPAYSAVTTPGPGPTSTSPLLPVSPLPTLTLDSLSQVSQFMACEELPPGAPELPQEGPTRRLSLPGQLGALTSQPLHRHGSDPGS

Row | Compound | Human plasma protein binding (% free) [1] [% free] | logD [2] | IC50 (hERG potassium channel) [nM] | solubility at 24 h [3] [µM] | IC50 [4] [nM] | IC50 [5] [nM] | % downregulation (in brackets) [5] [%]
1 | C[C@@H]1Cc2c([nH]c3ccccc23)[C@@H](c2c(F)ccc(OCCNCCCF)c2Cl)N1CC(F)(F)CO [Example 85, 3-((1R,3R)-1-(2-chloro-6-fluoro-3-(2-((3-fluoropropyl)amino)ethoxy)phenyl)-3-methyl-1,3,4,9-tetrahydro-2H-pyrido[3,4-b]indol-2-yl)-2,2-difluoropropan-1-ol] | 1.0 | 3.1 | 4200 | 224 (≈ 118 µg/mL) | 1.3 | 0.089 | –
2 | COc1ccc(O[C@H](C)CNCCCF)cc1[C@@H]1c2[nH]c3ccccc3c2C[C@@H](C)N1CC(F)(F)CO [Example 47, 2,2-difluoro-3-((1R,3R)-1-(5-(((R)-1-((3-fluoropropyl)amino)propan-2-yl)oxy)-2-methoxyphenyl)-3-methyl-1,3,4,9-tetrahydro-2H-pyrido[3,4-b]indol-2-yl)propan-1-ol] | 6.1 | 2.7 | 3200 | 488 (≈ 254 µg/mL) | 2.5 | 11 | 81
3 | Cc1c(OCCN(C)CCCF)ccc(F)c1[C@@H]1c2[nH]c3ccccc3c2C[C@@H](C(F)(F)F)N1C[C@H](C)C(=O)O [Example 149, (S)-3-((1R,3S)-1-(6-fluoro-3-(2-((3-fluoropropyl)(methyl)amino)ethoxy)-2-methylphenyl)-3-(trifluoromethyl)-1,3,4,9-tetrahydro-2H-pyrido[3,4-b]indol-2-yl)-2-methylpropanoic acid] | 5.3 | 2.2 | > 40000 | 523 (≈ 297 µg/mL) | 1.5 | 0.85 | 86
4 | C[C@@H]1Cc2c([nH]c3ccccc23)[C@@H](c2c(F)cnc(OCCNCCCF)c2F)N1CC1(F)CC1 [Example 108, N-(2-((3,5-difluoro-4-((1R,3R)-2-((1-fluorocyclopropyl)methyl)-3-methyl-2,3,4,9-tetrahydro-1H-pyrido[3,4-b]indol-1-yl)pyridin-2-yl)oxy)ethyl)-3-fluoropropan-1-amine] | 2.3 | 3.2 | 6000 | 375 (≈ 184 µg/mL) | 1 | 0.3 | –
5 | C[C@@H]1Cc2c([nH]c3ccccc23)[C@@H](c2c(Cl)ccc(OCCNCCCF)c2Cl)N1C[C@H](C)C(=O)O [Example 128, (S)-3-((1R,3R)-1-(2,6-dichloro-3-(2-((3-fluoropropyl)amino)ethoxy)phenyl)-3-methyl-1,3,4,9-tetrahydro-2H-pyrido[3,4-b]indol-2-yl)-2-methylpropanoic acid] | 15 | 1 | > 40000 | 973 (≈ 522 µg/mL) | 3.4 | 1.1 | –
6 | Cc1ncc(OCCNCCCF)cc1[C@@H]1c2[nH]c3ccccc3c2C[C@@H](C)N1CC(F)(F)F [Example 37, 3-fluoro-N-(2-((6-methyl-5-((1R,3R)-3-methyl-2-(2,2,2-trifluoroethyl)-2,3,4,9-tetrahydro-1H-pyrido[3,4-b]indol-1-yl)pyridin-3-yl)oxy)ethyl)propan-1-amine] | 2.3 | 3.6 | 3500 | 434 (≈ 208 µg/mL) | 12 | 35 | –
7 | COc1ncc(NCCNCCCF)cc1[C@@H]1c2[nH]c3ccccc3c2C[C@@H](C)N1CC(F)(F)F [Example 41, N1-(3-fluoropropyl)-N2-(6-methoxy-5-((1R,3R)-3-methyl-2-(2,2,2-trifluoroethyl)-2,3,4,9-tetrahydro-1H-pyrido[3,4-b]indol-1-yl)pyridin-3-yl)ethane-1,2-diamine] | 1.8 | 2.9 | 4900 | 242 (≈ 119 µg/mL) | 12 | 6 | –
8 | Cc1c([C@@H]2c3[nH]c4ccccc4c3C[C@@H](C)N2CC(F)(F)CO)ccnc1OCCNCCCF [Example 103, 2,2-difluoro-3-((1R,3R)-1-(2-(2-((3-fluoropropyl)amino)ethoxy)-3-methylpyridin-4-yl)-3-methyl-1,3,4,9-tetrahydro-2H-pyrido[3,4-b]indol-2-yl)propan-1-ol] | 2 | 2.9 | 4300 | 660 (≈ 324 µg/mL) | 0.56 | 0.084 | –
9 | Cc1ccc(OCCNCCCF)nc1[C@@H]1c2[nH]c3ccccc3c2C[C@@H](C)N1CC(F)(F)F [Example 105, 3-fluoro-N-(2-((5-methyl-6-((1S,3R)-3-methyl-2-(2,2,2-trifluoroethyl)-2,3,4,9-tetrahydro-1H-pyrido[3,4-b]indol-1-yl)pyridin-2-yl)oxy)ethyl)propan-1-amine] | 1 | 3.4 | 3500 | 136 (≈ 65.1 µg/mL) | 42 | 39 | –
10 | C[C@@H]1Cc2c([nH]c3ccccc23)[C@@H](c2ccnc(OCCNCCCF)c2)N1CC(F)(F)F [Example 102, 3-fluoro-N-(2-((4-((1R,3R)-3-methyl-2-(2,2,2-trifluoroethyl)-2,3,4,9-tetrahydro-1H-pyrido[3,4-b]indol-1-yl)pyridin-2-yl)oxy)ethyl)propan-1-amine] | 1.4 | 3.8 | 7200 | 251 (≈ 117 µg/mL) | 2 | 2.9 | –
11 | COc1ccc(OCCNCCCF)c(F)c1[C@@H]1c2[nH]c3ccccc3c2C[C@@H](C)N1CC1(F)COC1 [Example 84, 3-fluoro-N-(2-(2-fluoro-3-((1R,3R)-2-((3-fluorooxetan-3-yl)methyl)-3-methyl-2,3,4,9-tetrahydro-1H-pyrido[3,4-b]indol-1-yl)-4-methoxyphenoxy)ethyl)propan-1-amine] | 6 | 2.4 | 2800 | 640 (≈ 331 µg/mL) | 0.94 | 0.16 | 83
12 | COc1c(F)cc(OCCNCCCF)c(F)c1[C@@H]1c2[nH]c3ccccc3c2C[C@@H](C)N1CC(F)(F)F [Example 29, N-(2-(2,5-difluoro-4-methoxy-3-((1R,3R)-3-methyl-2-(2,2,2-trifluoroethyl)-2,3,4,9-tetrahydro-1H-pyrido[3,4-b]indol-1-yl)phenoxy)ethyl)-3-fluoropropan-1-amine] | <3.2 | > 3.2 | 5100 | 58 (≈ 30.7 µg/mL) | 2 | 0.44 | –
13 | COc1ccc(OCCNCCCF)c(C)c1[C@@H]1c2[nH]c3ccccc3c2C[C@@H](C)N1CC(F)(F)F [Example 26, 3-fluoro-N-(2-(4-methoxy-2-methyl-3-((1R,3R)-3-methyl-2-(2,2,2-trifluoroethyl)-2,3,4,9-tetrahydro-1H-pyrido[3,4-b]indol-1-yl)phenoxy)ethyl)propan-1-amine] | 0.22 | 4.6 | 4100 | 8 (≈ 4.06 µg/mL) | 0.85 | 0.16 | –
14 | Cc1c([C@@H]2c3[nH]c4ccccc4c3C[C@@H](C)N2C[C@H](C)C(=O)O)ccnc1OCCNCCCF [Example 132, (S)-3-((1R,3R)-1-(2-(2-((3-fluoropropyl)amino)ethoxy)-3-methylpyridin-4-yl)-3-methyl-1,3,4,9-tetrahydro-2H-pyrido[3,4-b]indol-2-yl)-2-methylpropanoic acid] | 34 | 0.6 | > 40000 | 914 (≈ 441 µg/mL) | 2 | 0.98 | –
15 | Cc1ccc(OCCNCCCF)c(C)c1[C@@H]1c2[nH]c3ccccc3c2C[C@@H](C)N1CC(F)(F)F [Example 79, N-(2-(2,4-dimethyl-3-((1R,3R)-3-methyl-2-(2,2,2-trifluoroethyl)-2,3,4,9-tetrahydro-1H-pyrido[3,4-b]indol-1-yl)phenoxy)ethyl)-3-fluoropropan-1-amine] | <0.4 | 4.8 | 10000 | 3.9 (≈ 1.92 µg/mL) | 1.4 | 0.16 | –
16 | COc1cc(F)c(NCCNCCCF)cc1[C@@H]1c2[nH]c3ccccc3c2C[C@@H](C)N1CC(F)(F)F [Example 91, N1-(2-fluoro-4-methoxy-5-((1R,3R)-3-methyl-2-(2,2,2-trifluoroethyl)-2,3,4,9-tetrahydro-1H-pyrido[3,4-b]indol-1-yl)phenyl)-N2-(3-fluoropropyl)ethane-1,2-diamine] | 0.93 | 2.9 | 2600 | 280 (≈ 143 µg/mL) | 9.4 | 15 | –
17 | COc1ccc(NCCNCCCF)nc1[C@@H]1c2[nH]c3ccccc3c2C[C@@H](C)N1CC(F)(F)F [Example 43, N1-(3-fluoropropyl)-N2-(5-methoxy-6-((1S,3R)-3-methyl-2-(2,2,2-trifluoroethyl)-2,3,4,9-tetrahydro-1H-pyrido[3,4-b]indol-1-yl)pyridin-2-yl)ethane-1,2-diamine] | 2.8 | 2.2 | 3100 | 358 (≈ 177 µg/mL) | 82 | 220 | –
18 | COc1ncc(OCCNCCCF)cc1[C@@H]1c2[nH]c3ccccc3c2C[C@@H](C)N1CC(F)(F)F [Example 36, 3-fluoro-N-(2-((6-methoxy-5-((1R,3R)-3-methyl-2-(2,2,2-trifluoroethyl)-2,3,4,9-tetrahydro-1H-pyrido[3,4-b]indol-1-yl)pyridin-3-yl)oxy)ethyl)propan-1-amine] | 2 | 3.5 | 8700 | 183 (≈ 90.5 µg/mL) | 2.6 | 0.35 | –
